The values below are quoted from earlier work in US20100068280A1, “SUSTAINED RELEASE PHARMACEUTICAL DOSAGE FORM CONTAINING PHENYLEPHRINE” (priority 2006, published 2010).

Molecules are shown by their SMILES.

For this data set the following is noted: in vivo.

Regarding `CN1CCC(=C2c3ccccc3CCc3cccnc32)CC1` [Azatadine], the elimination half-life is 9 to 12 h.
